Like-named read-outs stand apart in the source and are kept apart here.
Columns and labels:
[1] = target: T1, HiBit-BRG1 fusion protein (Homo sapiens, UniProt P51532); assay: HiBiT-BRG1 cell-based degradation assay (Nano-Glo HiBiT Lytic Detection, 24 h); details: for Dmax: HeLa, top dose 30 μM, read-out: BRG1 HiBit Degradation Maximum measured
T1 construct: expressed in transfected cells
How it was run: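 Stable HeLa line expressing HiBiT-BRG1 and LgBiT, seeded at 5000 cells/well; luminescence read after lytic Nano-Glo HiBiT reagent and 10 min shaking at RT. % degradation normalised between DMSO (high control) and 2 μM reference BRM/BRG1 degrader (low control).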

HiBit-BRM fusion protein = target: T2, HiBit-BRM fusion protein (Homo sapiens, UniProt P51531); assay: HiBiT-BRM cell-based degradation assay (Nano-Glo HiBiT Lytic Detection, 24 h); details: HeLa cells expressing HiBiT-BRM; for DC50: read-out: BRM HiBit Degradation IC50; for BRM HiBit Degradation Maximum measured: top dose 30 μM
T2 construct: expressed in transfected cells
T2 sequence (P51531 whole entry, the tested form may be a part): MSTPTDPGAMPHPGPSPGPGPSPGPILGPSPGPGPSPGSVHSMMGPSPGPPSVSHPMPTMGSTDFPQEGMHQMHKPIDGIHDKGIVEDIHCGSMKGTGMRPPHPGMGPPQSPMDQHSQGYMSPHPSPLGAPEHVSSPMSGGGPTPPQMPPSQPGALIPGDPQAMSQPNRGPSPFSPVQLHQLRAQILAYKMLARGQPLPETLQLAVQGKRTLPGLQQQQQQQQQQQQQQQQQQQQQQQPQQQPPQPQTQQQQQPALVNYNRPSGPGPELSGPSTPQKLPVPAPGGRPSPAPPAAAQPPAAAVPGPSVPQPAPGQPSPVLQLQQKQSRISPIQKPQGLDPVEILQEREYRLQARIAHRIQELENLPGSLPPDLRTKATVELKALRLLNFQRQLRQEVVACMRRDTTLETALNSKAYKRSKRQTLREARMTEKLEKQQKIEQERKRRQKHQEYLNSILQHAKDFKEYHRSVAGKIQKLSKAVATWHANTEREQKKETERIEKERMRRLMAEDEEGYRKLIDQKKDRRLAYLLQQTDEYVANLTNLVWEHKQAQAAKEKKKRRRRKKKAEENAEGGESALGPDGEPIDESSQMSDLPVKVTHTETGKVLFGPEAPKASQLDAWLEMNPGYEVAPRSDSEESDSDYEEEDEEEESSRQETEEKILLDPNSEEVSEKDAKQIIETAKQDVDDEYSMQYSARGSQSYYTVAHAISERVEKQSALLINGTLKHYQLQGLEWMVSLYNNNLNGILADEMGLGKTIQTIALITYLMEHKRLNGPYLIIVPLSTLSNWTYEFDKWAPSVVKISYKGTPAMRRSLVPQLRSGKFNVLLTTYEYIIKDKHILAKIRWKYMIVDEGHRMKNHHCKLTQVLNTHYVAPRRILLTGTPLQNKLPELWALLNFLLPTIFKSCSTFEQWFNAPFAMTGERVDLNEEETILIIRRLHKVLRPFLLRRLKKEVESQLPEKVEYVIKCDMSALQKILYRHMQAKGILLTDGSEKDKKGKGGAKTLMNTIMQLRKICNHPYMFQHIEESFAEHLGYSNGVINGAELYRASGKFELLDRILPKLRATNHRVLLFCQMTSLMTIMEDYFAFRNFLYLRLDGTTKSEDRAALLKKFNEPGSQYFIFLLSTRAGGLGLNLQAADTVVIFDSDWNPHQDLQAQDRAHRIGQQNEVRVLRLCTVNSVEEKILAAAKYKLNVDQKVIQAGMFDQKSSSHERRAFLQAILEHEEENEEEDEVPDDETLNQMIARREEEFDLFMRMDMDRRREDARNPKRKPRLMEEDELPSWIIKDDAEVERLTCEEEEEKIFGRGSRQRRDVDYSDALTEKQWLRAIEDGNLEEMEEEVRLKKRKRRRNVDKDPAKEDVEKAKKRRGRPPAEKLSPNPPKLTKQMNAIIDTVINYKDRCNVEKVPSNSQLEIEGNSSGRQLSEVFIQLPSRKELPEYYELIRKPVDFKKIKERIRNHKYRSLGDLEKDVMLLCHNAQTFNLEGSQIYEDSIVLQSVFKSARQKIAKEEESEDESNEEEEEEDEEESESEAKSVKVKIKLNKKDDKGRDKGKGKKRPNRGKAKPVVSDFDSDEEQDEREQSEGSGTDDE
How it was run: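 Luminescence from reconstituted NanoBiT luciferase in lysed HeLa HiBiT-BRM cells served as the measure of remaining BRM after 24 h treatment. Compounds were tested from 30 μM final downward in 3-fold steps. DMSO and 2 μM of a standard BRM/BRG1 degrader defined the scale limits.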

[2] = HeLa cells expressing HiBit-BRG1 and LgBit, read-out: BRG1 HiBit Degradation IC50
[3] = HeLa cells expressing HiBit-BRG1 and LgBit

T1 sequence (P51532 whole entry, the tested form may be a part): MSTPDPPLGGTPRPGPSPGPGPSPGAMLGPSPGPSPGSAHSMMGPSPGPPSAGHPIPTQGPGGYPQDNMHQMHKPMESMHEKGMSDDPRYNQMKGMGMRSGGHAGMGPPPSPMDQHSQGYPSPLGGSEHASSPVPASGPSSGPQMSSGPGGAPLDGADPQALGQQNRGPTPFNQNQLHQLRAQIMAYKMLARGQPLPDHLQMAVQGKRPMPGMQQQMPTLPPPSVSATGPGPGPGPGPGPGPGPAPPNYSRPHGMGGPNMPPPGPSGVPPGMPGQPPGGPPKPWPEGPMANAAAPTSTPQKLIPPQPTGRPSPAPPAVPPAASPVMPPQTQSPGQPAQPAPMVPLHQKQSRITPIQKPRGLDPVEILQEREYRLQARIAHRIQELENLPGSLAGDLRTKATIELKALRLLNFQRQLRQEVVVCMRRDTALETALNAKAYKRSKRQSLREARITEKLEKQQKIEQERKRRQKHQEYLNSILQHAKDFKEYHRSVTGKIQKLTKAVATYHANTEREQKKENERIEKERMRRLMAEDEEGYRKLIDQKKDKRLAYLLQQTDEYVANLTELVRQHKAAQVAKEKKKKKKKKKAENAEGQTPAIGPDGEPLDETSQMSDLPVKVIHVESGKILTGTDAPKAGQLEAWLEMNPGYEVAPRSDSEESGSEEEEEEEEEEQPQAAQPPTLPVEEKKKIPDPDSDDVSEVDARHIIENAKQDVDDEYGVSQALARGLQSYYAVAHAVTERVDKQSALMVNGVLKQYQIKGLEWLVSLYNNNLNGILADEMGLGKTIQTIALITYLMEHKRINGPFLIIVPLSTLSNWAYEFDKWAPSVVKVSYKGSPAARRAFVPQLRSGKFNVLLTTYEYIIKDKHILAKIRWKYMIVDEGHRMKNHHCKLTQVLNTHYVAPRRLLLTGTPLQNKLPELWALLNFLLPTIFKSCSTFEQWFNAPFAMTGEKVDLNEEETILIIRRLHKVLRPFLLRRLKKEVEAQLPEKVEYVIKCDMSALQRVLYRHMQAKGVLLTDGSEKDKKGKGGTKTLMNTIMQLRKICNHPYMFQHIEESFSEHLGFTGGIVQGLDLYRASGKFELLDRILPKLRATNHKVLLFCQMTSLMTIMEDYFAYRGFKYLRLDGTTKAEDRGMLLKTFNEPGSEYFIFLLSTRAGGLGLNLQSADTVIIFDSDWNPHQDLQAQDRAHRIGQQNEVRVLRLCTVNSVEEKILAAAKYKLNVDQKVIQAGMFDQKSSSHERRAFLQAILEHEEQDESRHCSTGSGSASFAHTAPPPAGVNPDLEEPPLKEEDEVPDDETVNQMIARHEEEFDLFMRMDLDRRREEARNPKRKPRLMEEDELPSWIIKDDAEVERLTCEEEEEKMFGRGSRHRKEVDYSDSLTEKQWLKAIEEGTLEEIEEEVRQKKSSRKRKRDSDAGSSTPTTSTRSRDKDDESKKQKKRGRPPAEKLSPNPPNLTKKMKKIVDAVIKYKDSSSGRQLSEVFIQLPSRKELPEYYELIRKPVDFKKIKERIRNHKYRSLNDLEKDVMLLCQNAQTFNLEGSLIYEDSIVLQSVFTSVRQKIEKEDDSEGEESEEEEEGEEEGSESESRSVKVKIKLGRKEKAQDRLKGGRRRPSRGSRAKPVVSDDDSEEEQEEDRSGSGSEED

| Structure (SMILES) | DC50 [1, 2] [µM] | Dmax [1, 3] [%] | DC50 (HiBit-BRM fusion protein) [µM] | BRM HiBit Degradation Maximum measured (HiBit-BRM fusion protein) | DC50 ([1]; read-out: BRG1 HiBit Degradation IC50, HeLa cells expressing HiBit-BRG1 and LgBit) [µM] |
| --- | --- | --- | --- | --- | --- |
| CS(=O)(=O)n1ccc(C(=O)NCC(=O)Nc2nc(-c3cccc(-c4ccnc(OCCNC(=O)CCCCCCCCCCNc5cccc6c5C(=O)N(C5CCC(=O)NC5=O)C6=O)c4)c3)cs2)c1 (stereo not drawn) [Compound 82, N-[2-[[4-[3-[2-[2-[11-[[2-(2,6-dioxo-3-piperidyl)-1,3-dioxo-isoindolin-4-yl]amino]undecanoylamino]ethoxy]-4-pyridyl]phenyl]thiazol-2-yl]amino]-2-oxo-ethyl]-1-methylsulfonylpyrrole-3-carboxamide] | > 10 | < 50 | > 10 | C (‘C’ = Maximum degradation <50%) |  |
| CS(=O)(=O)n1ccc(C(=O)N[C@@H](COCc2ccc(C(=O)N3CC(COc4ccc5c(c4)C(=O)N(C4CCC(=O)NC4=O)C5=O)C3)cc2)C(=O)Nc2nc(-c3ccccc3)cs2)c1 (stereo partly drawn) [Compound 198, (2S)-3-([4-[3-([[2-(2,6-dioxopiperidin-3-yl)-1,3-dioxoisoindol-5-yl]oxy]methyl)azetidine-1-carbonyl]phenyl]methoxy)-2-[(1-methanesulfonylpyrrol-3-yl)formamido]-N-(4-phenyl-1,3-thiazol-2-yl)propanamide] |  |  | > 10 | C (‘C’ = Maximum degradation <50%) | > 10 |
| CC(C)(C(=O)NCCCCCCCCNC(=O)COc1cccc2c1C(=O)N(C1CCC(=O)NC1=O)C2=O)n1ccc(-c2cccc(-c3csc(NC(=O)CNC(=O)c4ccn(S(C)(=O)=O)c4)n3)c2)n1 (stereo not drawn) [Compound 8, N-(2-((4-(3-(1-(1-((8-(2-((2-(2,6-dioxopiperidin-3-yl)-1,3-dioxoisoindolin-4-yl)oxy)acetamido)octyl)amino)-2-methyl-1-oxopropan-2-yl)-1H-pyrazol-3-yl)phenyl)thiazol-2-yl)amino)-2-oxoethyl)-1-(methylsulfonyl)-1H-pyrrole-3-carboxamide] | 0.1 to 1 | 50 to 75 | 0.1 to 1 | B (‘B’ = Maximum degradation ≥50% and ≤75%) |  |
| CS(=O)(=O)n1ccc(C(=O)NCC(=O)Nc2nc(-c3cccc(-c4ccnc(N5CCN(C(=O)CCOCCOCCOc6cccc7c6C(=O)N(C6CCC(=O)NC6=O)C7=O)CC5)c4)c3)cs2)c1 (stereo not drawn) [Compound 34, N-(2-((4-(3-(2-(4-(3-(2-(2-((2-(2,6-dioxopiperidin-3-yl)-1,3-dioxoisoindolin-4-yl)oxy)ethoxy)ethoxy)propanoyl)piperazin-1-yl)pyridin-4-yl)phenyl)thiazol-2-yl)amino)-2-oxoethyl)-1-(methylsulfonyl)-1H-pyrrole-3-carboxamide] | 0.1 to 1 | 50 to 75 | 0.1 to 1 | B (‘B’ = Maximum degradation ≥50% and ≤75%) |  |
| Cc1ncsc1-c1ccc(CNC(=O)[C@@H]2C[C@@H](O)CN2C(=O)[C@@H](NC(=O)CCCC(=O)NCc2cccc(-c3cccc(-c4csc(NC(=O)CNC(=O)c5ccn(S(C)(=O)=O)c5)n4)c3)c2)C(C)(C)C)cc1 [Compound 56, N′-[(1S)-1-[(2S,4R)-4-hydroxy-2-[[4-(4-methylthiazol-5-yl)phenyl]methylcarbamoyl]pyrrolidine-1-carbonyl]-2,2-dimethyl-propyl]-N-[[3-[3-[2-[[2-[(1-methylsulfonylpyrrole-3-carbonyl)amino]acetyl]amino]thiazol-4-yl]phenyl]phenyl]methyl]pentanediamide] | > 10 | < 50 | > 10 | C (‘C’ = Maximum degradation <50%) |  |
| CS(=O)(=O)n1ccc(C(=O)N[C@@H](COCc2ccc(C(=O)NCCOCCOCCNC(=O)COc3cccc4c3C(=O)N(C3CCC(=O)NC3=O)C4=O)cc2)C(=O)Nc2nc(-c3ccccc3)cs2)c1 (stereo partly drawn) [Compound 196] | > 10 | < 50 | > 10 | C (‘C’ = Maximum degradation <50%) |  |
| CN(CCNC(=O)c1ccc(COCC(NC(=O)c2ccn(S(C)(=O)=O)c2)C(=O)Nc2nc(-c3ccccc3)cs2)cc1)CCNc1cccc2c1C(=O)N(C1CCC(=O)NC1=O)C2=O [Compound 244, (N-[2-[(2-[[2-(2,6-dioxopiperidin-3-yl)-1,3-dioxoisoindol-4-yl]amino]ethyl)(methyl)amino]ethyl]-4-[[(2S)-2-[(1-methanesulfonylpyrrol-3-yl)formamido]-2-[(4-phenyl-1,3-thiazol-2-yl)carbamoyl]ethoxy]methyl]benzamide] | > 10 | < 50 | > 10 | C (‘C’ = Maximum degradation <50%) |  |
| Cc1ncsc1-c1ccc(CNC(=O)[C@@H]2C[C@@H](O)CN2C(=O)[C@@H](NC(=O)CCC(=O)NCCOc2cc(-c3cccc(-c4csc(NC(=O)CNC(=O)c5ccn(S(C)(=O)=O)c5)n4)c3)ccn2)C(C)(C)C)cc1 [Compound 76, N′-[(1S)-1-[(2S,4R)-4-hydroxy-2-[[4-(4-methylthiazol-5-yl)phenyl]methylcarbamoyl]pyrrolidine-1-carbonyl]-2,2-dimethyl-propyl]-N-[2-[[4-[3-[2-[[2-[(1-methylsulfonylpyrrole-3-carbonyl)amino]acetyl]amino]thiazol-4-yl]phenyl]-2-pyridyl]oxy]ethyl]butanediamide] | > 10 | < 50 | > 10 | C (‘C’ = Maximum degradation <50%) |  |
| Cc1ncsc1-c1ccc(CNC(=O)[C@@H]2C[C@@H](O)CN2C(=O)[C@@H](NC(=O)CN2CC3(CN(CC(=O)NCc4cccc(-c5cccc(-c6csc(NC(=O)CNC(=O)c7ccn(S(C)(=O)=O)c7)n6)c5)c4)C3)C2)C(C)(C)C)cc1.O=C(O)C(F)(F)F [Compound 166, (2S,4R)-4-hydroxy-1-[(2S)-2-(2-[6-[([[3′-(2-[2-[(1-methanesulfonylpyrrol-3-yl)formamido]acetamido]-1,3-thiazol-4-yl)-[1,1′-biphenyl]-3-yl]methyl]carbamoyl)methyl]-2,6-diazaspiro[3.3]heptan-2-yl]acetamido)-3,3-dimethylbutanoyl]-N-[[4-(4-methyl-1,3-thiazol-5-yl)phenyl]methyl]pyrrolidine-2-carboxamide trifluoroacetate] | > 10 | < 50 | 0.1 to 1 | B (‘B’ = Maximum degradation ≥50% and ≤75%) |  |
| Cc1ncsc1-c1ccc(CNC(=O)[C@@H]2C[C@@H](O)CN2C(=O)[C@@H](NC(=O)COCCOCC(=O)N2CCN(c3cc(-c4cccc(-c5csc(NC(=O)CNC(=O)c6ccn(S(C)(=O)=O)c6)n5)c4)ccn3)CC2)C(C)(C)C)cc1 [Compound 75, N-(2-((4-(3-(2-(4-(2-(2-(2-(((S)-1-((2S,4R)-4-hydroxy-2-((4-(4-methylthiazol-5-yl)benzyl)carbamoyl)pyrrolidin-1-yl)-3,3-dimethyl-1-oxobutan-2-yl)amino)-2-oxoethoxy)ethoxy)acetyl)piperazin-1-yl)pyridin-4-yl)phenyl)thiazol-2-yl)amino)-2-oxoethyl)-1-(methylsulfonyl)-1H-pyrrole-3-carboxamide] | 0.1 to 1 | > 75 | 0.1 to 1 | B (‘B’ = Maximum degradation ≥50% and ≤75%) |  |

More lines, main results first:

| DC50 [1, 2] [µM] | Dmax [1, 3] [%] | DC50 (HiBit-BRM fusion protein) [µM] | BRM HiBit Degradation Maximum measured (HiBit-BRM fusion protein) | Structure (SMILES) | DC50 ([1]; read-out: BRG1 HiBit Degradation IC50, HeLa cells expressing HiBit-BRG1 and LgBit) [µM] |
| --- | --- | --- | --- | --- | --- |
| > 10 | < 50 | > 10 | C (‘C’ = Maximum degradation <50%) | CS(=O)(=O)n1ccc(C(=O)N[C@@H](CCCCNC(=O)CCCCCCCCCCNc2cccc3c2C(=O)N(C2CCC(=O)NC2=O)C3=O)C(=O)Nc2nc(-c3ccccc3)cs2)c1 (stereo partly drawn) [Compound 296, 11-[[2-(2,6-dioxopiperidin-3-yl)-1,3-dioxoisoindol-4-yl]amino]-N-[(5S)-5-[(1-methanesulfonylpyrrol-3-yl)formamido]-5-[(4-phenyl-1,3-thiazol-2-yl)carbamoyl]pentyl]undecanamide] |  |
| > 10 | < 50 | > 10 | C (‘C’ = Maximum degradation <50%) | CS(=O)(=O)n1ccc(C(=O)N[C@@H](COCc2ccc(C(=O)N3CC(CCOc4cccc5c4C(=O)N(C4CCC(=O)NC4=O)C5=O)C3)cc2)C(=O)Nc2nc(-c3ccccc3)cs2)c1 (stereo partly drawn) [Compound 238, (2S)-3-([4-[3-(2-[[2-(2,6-dioxopiperidin-3-yl)-1,3-dioxoisoindol-4-yl]oxy]ethyl)azetidine-1-carbonyl]phenyl]methoxy)-2-[(1-methanesulfonylpyrrol-3-yl)formamido]-N-(4-phenyl-1,3-thiazol-2-yl)propanamide] |  |
| < 0.1 | > 75 | < 0.1 | A (‘A’ = Maximum degradation >75%) | CS(=O)(=O)n1ccc(C(=O)NCC(=O)Nc2nc(-c3cccc(-c4ccnc(C5(C(=O)NCCNc6ccc7c(c6)C(=O)N(C6CCC(=O)NC6=O)C7)CC5)c4)c3)cs2)c1 (stereo not drawn) [Compound 168, N-(2-((4-(3-(2-(1-((2-((2-(2,6-dioxopiperidin-3-yl)-3-oxoisoindolin-5-yl)amino)ethyl)carbamoyl)cyclopropyl)pyridin-4-yl)phenyl)thiazol-2-yl)amino)-2-oxoethyl)-1-(methylsulfonyl)-1H-pyrrole-3-carboxamide] |  |

— patent US12662479B2 (Foghorn Therapeutics Inc., priority 2020, dated 2026)
